Laboratory results taken from PMC5316935, “Mangiferin from Pueraria tuberosa reduces inflammation via inactivation of NLRP3 inflammasome” (Scientific Reports, 2017).

Tested on: T1, COX-2
T1 construct: gene Ptgs2
Test: chromogenic TMPD oxidation assay of COX-2 activity; RAW […] cells per figure legend
Format: biochemical

Structure (SMILES): O=c1c2cc(O)c(O)cc2oc2cc(O)c([C@@H]3O[C@H](CO)[C@@H](O)[C@H](O)[C@H]3O)c(O)c12 [PT-Mangiferin, Mangiferin]
- IC50: 40 µM
